Assay results reported in US7135480B2, “Substituted 1-benzoyl-3-cyano-pyrrolo [1,2-a] quinolines and analogs as activators of caspases and inducers of apoptosis” (Cytovia, Inc., priority 2002, dated 2006).
Like-named read-outs stand apart in the source and are kept apart here.

Experiments:
T-47D [1] = test: Caspase cascade activation assay (N-(Ac-DEVD)-N'-ethoxycarbonyl-R110 fluorogenic substrate) in T-47D cells; format: cell-based, Human; conditions: for EC50: read-out: Caspase potency EC50; for Caspase activity (Ratio): ratio of net RFU of compound to control, 0.16 to 10 μM final
Experimental: (§1) Human breast cancer cell lines T-47D and ZR-75-1 were grown according to media component mixtures designated by American Type Culture Collection +10% FCS (Invitrogen Corporation), in a 5% CO2–95% humidity incubator at 37° C. T-47D and ZR-75-1 cells were maintained at a cell density between 30 and 80% confluency and for HL-60 at a cell density of 0.1 to 0.6×10^6 cells/mL. Cells were harvested at 600×g and resuspended at 0.65×10^6 cells/mL into appropriate media +10% FCS. An aliquot of 45 μL of cells was added to a well of a 96-well microtiter plate containing 5 μL of a 10% DMSO in RPMI-1640 media solution containing 1.6 to 100 μM of 1-benzoyl-3-cyano-pyrrolo[1,2-a]quinoline or other test compound (0.16 to 10 μM final). An aliquot of 45 μL of cells was added to a well of a 96-well microtiter plate containing 5 μL of a 10% DMSO in RPMI-1640 media solution without test compound as the control sample. The samples were mixed by agitation and then incubated at 37° C. for 24 h in a 5% CO2–95% humidity incubator. After incubation, the samples were removed from the incubator and 50 μL of a solution containing 20 μM of N-(Ac-DEVD)-N′-ethoxycarbonyl-R110 fluorogenic substrate (SEQ ID NO:1) (Cytovia, Inc.; U.S. Pat. No. 6,335,429), 20% sucrose (Sigma), 20 mM DTT (Sigma), 200 mM NaCl (Sigma), 40 mM Na PIPES buffer pH 7.2 (Sigma), and 500 μg/mL lysolecithin (Calbiochem) was added. The samples were mixed by agitation and incubated at room temperature. Using a fluorescent plate reader (Model 1420 Wallac Instruments), an initial reading (T=0) was made approximately 1–2 min after addition of the substrate solution, employing excitation at 485 nm and emission at 530 nm, to determine the background fluorescence of the control sample. After approximately 3 h of incubation, the samples were read for fluorescence as above (T=3 h).
(§2) The Relative Fluorescence Unit values (RFU) were used to calculate the sample readings as follows: RFU(T=3h)−Control RFU(T=0)=Net RFU(T=3h)
(§3) The activity of caspase cascade activation was determined by the ratio of the net RFU value for 1-benzoyl-3-cyano-pyrrolo[1,2-a]quinoline to that of control samples. The EC50 (nM) was determined by a sigmoidal dose-response calculation (Prism 2.0, GraphPad Software Inc.).

ZR-75-1 = test: Caspase cascade activation assay (N-(Ac-DEVD)-N'-ethoxycarbonyl-R110 fluorogenic substrate) in ZR-75-1 cells; format: cell-based, Human; conditions: for EC50: read-out: Caspase potency EC50; for Caspase activity (Ratio): ratio of net RFU of compound to control, 0.16 to 10 μM final
Experimental: as §1, §2, §3

T-47D [2] = test: Inhibition of cell proliferation (GI50, CellTiter 96 AQueous One Solution) in T-47D cells; format: cell-based, Human; conditions: read-out: GI50 (dose for 50% inhibition of cell proliferation)
Experimental: (§4) T-47D and SKBr-3 cells were grown and harvested as in Example 84. An aliquot of 90 μL of cells (2.2×10^4 cells/mL) was added to a well of a 96-well microtiter plate containing 10 μl of a 10% DMSO in RPMI-1640 media solution containing 1 nM to 100 μM of 1-benzoyl-3-cyano-pyrrolo[1,2-a]quinoline (0.1 nM to 10 μM final). An aliquot of 90 μL of cells was added to a well of a 96-well microtiter plate containing 10 μL of a 10% DMSO in RPMI-1640 media solution without compound as the control sample for maximal cell proliferation (AMax). The samples were mixed by agitation and then incubated at 37° C. for 48 h in a 5% CO2–95% humidity incubator. After incubation, the samples were removed from the incubator and 20 μL of CellTiter 96 AQUEOUS One Solution Cell Proliferation™ reagent (Promega) was added. The samples were mixed by agitation and incubated at 37° C. for 2–4 h in a 5% CO2–95% humidity incubator. Using an absorbance plate reader (Model 1420 Wallac Instruments), an initial reading (T=0) was made approximately 1–2 min after addition of the solution, employing absorbance at 490 nm. This determines the possible background absorbance of the test compounds. No absorbance for 1-benzoyl-3-cyano-pyrrolo[1,2-a]quinoline was found at 490 nm. After the 2–4 h incubation, the samples were read for absorbance as above (ATest).
(§5) Baseline for GI50 (dose for 50% inhibition of cell proliferation) of initial cell numbers were determined by adding an aliquot of 90 μL of cells or 90 μL of media, respectively, to wells of a 96-well microtiter plate containing 10 μL of a 10% DMSO in RPMI-1640 media solution. The samples were mixed by agitation and then incubated at 37° C. for 0.5 h in a 5% CO2–95% humidity incubator. After incubation, the samples were removed from the incubator and 20 μL of CellTiter 96 AQUEOUS One Solution Cell Proliferation ™ reagent (Promega) was added. The samples were mixed by agitation and incubated at 37° C. for 2–4 h in a 5% CO2–95% humidity incubator. Absorbance was read as above, (AStart) defining absorbance for initial cell number used as baseline in GI50 determinations. […]

SKBr-3 = test: Inhibition of cell proliferation (GI50, CellTiter 96 AQueous One Solution) in SKBr-3 cells; format: cell-based; conditions: read-out: GI50 (dose for 50% inhibition of cell proliferation)
Experimental: as §4, §5

[3] = Homo sapiens, T47D, T-47D, 24 h incubation, sigmoidal dose-response
[4] = Homo sapiens, ZR-75-1, 24 h incubation, sigmoidal dose-response

SMILES	EC50 (T-47D [1]; [3])	EC50 (ZR-75-1; [4])	Caspase activity (Ratio) (T-47D [1]; T-47D, 24 h incubation)	Caspase activity (Ratio) (ZR-75-1; ZR-75-1, 24 h incubation)	further results
Cc1ccc(C(=O)c2cc(C#N)c3ccc4ccccc4n23)cc1 [Example 6, 3-Cyano-1-(4-methyl-benzoyl)-pyrrolo[1,2-a]quinoline]	2410 nM	1400 nM	12	14	
N#Cc1cc(C(=O)c2ccccc2)n2c1ccc1ccccc12 [Example A, 1-benzoyl-3-cyano-pyrrolo[1,2-a]quinoline]			7	10	EC50 (T-47D [1]; Homo sapiens, T47D, 24 h): 242 nM; EC50 (ZR-75-1; Homo sapiens, ZR-75-1, 24 h): 243 nM; GI50 (T-47D [2]; Homo sapiens, T47D, 48 h): 30 nM; GI50 (SKBr-3; Homo sapiens, SK-BR-3, 48 h): 32 nM
COc1cccc(C(=O)c2cc(C#N)c3ccc4ccccc4n23)c1 [Example 4, 3-Cyano-1-(3-methoxy-benzoyl)-pyrrollo[1,2-a]quinoline]			12	10	EC50 (T-47D [1]; T-47D, 24 h incubation, sigmoidal dose-response): 463 nM; EC50 (ZR-75-1; ZR-75-1, 24 h incubation, sigmoidal dose-response): 624 nM; GI50 (T-47D [2]; T-47D, 48 h incubation): 138 nM; GI50 (SKBr-3; SKBR-3, 48 h incubation): 93 nM
N#Cc1cc(C(=O)c2ccccc2)n2ccccc12 [Example 3, 3-Benzoyl-1-cyano-indolizine]	> 10000 nM	> 10000 nM	1	1	
Cc1ccc2c(ccc3c(C#N)cc(C(=O)c4ccccc4)n32)c1 [Example 13, 1-Benzoyl-3-cyano-7-methyl-pyrrolo[1,2-a]quinoline]	> 10000 nM	5640 nM	1	2	
N#Cc1cc(C(=O)c2ccc(Cl)cc2)n2c1ccc1ccccc12 [Example 8, 1-(4-Chloro-benzoyl)-3-cyano-pyrrolo[1,2-a]quinoline]	587 nM	2580 nM	12	11	
N#Cc1cc(C(=O)c2ccccc2)n2c3c(ccc12)CCCC3 [Example 2, 1-Benzoyl-3-cyano-6,7,8,9-tetrahydro-pyrrolo[1,2-a]quinoline]	> 10000 nM	5300 nM	1	2	

Continued by falling EC50 (ZR-75-1; [4]), values first:

EC50 (T-47D [1]; [3])	EC50 (ZR-75-1; [4])	SMILES	Caspase activity (Ratio) (T-47D [1]; T-47D, 24 h incubation)	Caspase activity (Ratio) (ZR-75-1; ZR-75-1, 24 h incubation)	further results
2180 nM	1260 nM	N#Cc1cc(C(=O)c2ccc([N+](=O)[O-])cc2)n2c1ccc1ccccc12 [Example 10, 3-Cyano-1-(4-nitro-benzoyl)-pyrrolo[1,2-a]quinoline]	6	14	
1160 nM	493 nM	Cc1cc2c(C#N)cc(C(=O)c3ccccc3)n2c2ccccc12 [Example 12, 1-Benzoyl-3-cyano-5-methyl-pyrrolo[1,2-a]quinoline]	14	13	
351 nM	185 nM	COc1ccc(C(=O)c2cc(C#N)c3ccc4ccccc4n23)cc1 [Example 7, 3-Cyano-1-(4-methoxy-benzoyl)-pyrrolo[1,2-a]quinoline]	13	17	
	159 nM	N#Cc1cc(C(=O)c2cccc(Br)c2)n2c1ccc1ccccc12 [Example 5, 1-(3-Bromo-benzoyl)-3-cyano-pyrrolo[1,2-a]quinoline]		11	
150 nM	150 nM	N#Cc1cc(C(=O)c2ccc(F)cc2)n2c1ccc1ccccc12 [Example 9, 3-Cyano-1-(4-fluoro-benzoyl)-pyrrolo[1,2-a]quinoline]	12	12	
148 nM	147 nM	N#Cc1cc(C(=O)c2ccc(N)cc2)n2c1ccc1ccccc12 [Example 11, 1-(4-Amino-benzoyl)-3-cyano-pyrrolo[1,2-a]quinoline]	17	15	
157 nM	133 nM	N#Cc1cc(C(=O)c2ccc(N3CCCC3)cc2)n2c1ccc1ccccc12 [Example 1, 3-Cyano-1-(4-pyrrolidin-1-yl-benzoyl)-pyrrolo[1,2-a]quinoline]	10	7	GI50 (T-47D [2]; Homo sapiens, T47D, T-47D, 48 h incubation): 36 nM; GI50 (SKBr-3; Homo sapiens, SK-BR-3, SKBR-3, 48 h incubation): 42 nM
